Legend:
expert panel members = experiment: Sucrose Equivalent Value (SEV): expert panel matches the test solution to stock sucrose solutions; format: in vivo; settings: for SEV (%): 500 ppm of a single potentiator in pH 3.2 buffered 5% sucrose; for effect on sweetness (SEV) of sucrose solutions: 500 ppm in pH 3.2 buffered 0%, 3%, 5%, 7% and 9% sucrose; for effect on sweetness of the sucrose solution (dose response curve): 0 to 1000 ppm in pH 3.2 buffered 5% sucrose
Protocol: One method of measuring the perceived sweetness of a solution is to match it with a stock sucrose solution of known concentration. In the present experiments, the compound of interest is added at a predetermined concentration to a pH 3.2 buffered solution containing 5% sucrose. A number of expert panel members then taste the solution and compare it to a battery of stock sucrose solutions ranging from 3% to 15% at increments of 1%. Each panel member decides which sucrose solution is equisweet with the solution containing the compound of interest. The mean value is then reported as the SEV. Results are reported to 1 decimal place.
In accordance with this methodology, 3-HB was added to a pH 3.2 buffered solution containing 5% sucrose to produce solutions containing from 0 to 1000 ppm 3-HB in 100 ppm increments. […] From FIG. 1 it is apparent that as the dosage of 3-HB increases so does the sweetness of the resultant solution. However the effect is non-linear with each incremental addition having a diminishing effect. The maximum sweetness attainable would appear to be about 7.9% SEV (based on a 5% sucrose solution).
The same methodology as described in Example 7 was repeated with 2,4-DHB in place of 3-HB, to produce the dose response curve for 2,4-DHB (FIG. 2). […] The maximum attainable sweetness would appear to be about 6.7% SEV (based on a 5% sucrose solution).
500 ppm of a sweetener potentiator was added to a pH 3.2 buffered solution containing 5% sucrose and the SEV of the resultant solution determined. […]
pH 3.2 buffered solutions were prepared containing 0%, 3%, 5%, 7% and 9% sucrose. 500 ppm of 2,4-DHB acid, 500 ppm of the sodium salt of 2,4-DHB and 500 ppm of the potassium salt of 2,4-DHB were added individually to each of the sucrose solutions. The SEV for each of the solutions was then determined.
500 ppm of 3-aminobenzoic acid and 500 ppm of 4-aminobenzoic acid were individually added to separate pH 3.2 buffered solutions containing 5% sucrose and the SEVs of the resultant solutions were determined. The SEV of 3-aminobenzoic acid was about 7%, i.e., increased the sweetness intensity of 5% sucrose to about 7%. The SEV of 4-aminobenzoic acid was about 5.5-6%, i.e., increased the sweetness intensity of 5% sucrose to about 5.5-6%.

[1] = 0.2% added to a 5% sucrose solution; Canadian Patent No. 1208966; cited from earlier work

Compound: O=C(O)c1cc(O)c(O)c(O)c1 [3,4,5-THB, 3,4,5-tryhydroxybenzoic acid]
- SEV (%) (expert panel members): 5.1%

Compound: O=C([O-])c1ccc(O)cc1O.[K+] [potassium salt of 2,4-DHB]
- effect on sweetness (SEV) of sucrose solutions (expert panel members): enhances the sweetness of the sucrose solution in every case

Compound: O=C(O)c1cccc(O)c1 [3-HB, 3-hydroxybenzoic acid]
- effect on sweetness of the sucrose solution (dose response curve) (expert panel members): enhances the sweetness of the sucrose solution

Compound: O=C(O)c1ccc(O)cc1O [2,4-DHB, 2,4-dihydroxybenzoic acid]
- effect on sweetness of sucrose solution [1]: increase in sweetness
- effect on sweetness of the sucrose solution (dose response curve) (expert panel members): enhances the sweetness of the sucrose solution
- effect on sweetness (SEV) of sucrose solutions (expert panel members): enhances the sweetness of the sucrose solution in every case

Compound: O=C([O-])c1ccc(O)cc1O.[Na+] [sodium salt of 2,4-DHB]
- effect on sweetness (SEV) of sucrose solutions (expert panel members): enhances the sweetness of the sucrose solution in every case

Compound: O=C(O)c1ccc(O)c(O)c1 [3,4-DHB, 3,4-dihydroxybenzoic acid]
- SEV (%) (expert panel members): 6.4%

Reference: patent publication US8455033B2, “Taste potentiator compositions and edible confectionery and chewing gum products containing same” (Kraft Foods Global Brands LLC, priority 2005, dated 2013)
